Source: patent publication US20110060013A1, “THIAZOLES AND PYRAZOLES USEFUL AS KINASE INHIBITORS” (VERTEX PHARMACEUTICALS INCORPORATED, priority 2007, published 2011)

Tests used:
Aurora-2 (Aurora A) = biological target: T1, Aurora-2 (Aurora A) (Homo sapiens, UniProt O14965); assay: Aurora-2 (Aurora A) inhibition, coupled enzyme assay; format: biochemical; settings: 400 μM ATP, 570 μM Kemptide, 40 nM Aurora-2, 30° C.
T1 sequence (O14965 1-403): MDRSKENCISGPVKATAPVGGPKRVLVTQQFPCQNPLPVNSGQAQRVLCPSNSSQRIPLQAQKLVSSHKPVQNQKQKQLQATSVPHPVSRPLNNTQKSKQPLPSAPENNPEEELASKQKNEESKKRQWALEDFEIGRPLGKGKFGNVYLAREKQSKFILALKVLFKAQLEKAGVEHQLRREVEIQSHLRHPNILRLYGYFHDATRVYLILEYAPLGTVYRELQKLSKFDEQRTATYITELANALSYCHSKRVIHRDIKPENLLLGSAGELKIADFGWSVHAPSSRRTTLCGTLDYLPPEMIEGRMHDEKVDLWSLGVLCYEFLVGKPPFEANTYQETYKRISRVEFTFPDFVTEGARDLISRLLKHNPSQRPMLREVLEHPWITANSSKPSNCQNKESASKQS
Description: Compounds were screened for their ability to inhibit Aurora-2 using a standard coupled enzyme assay (Fox et al., Protein Sci., (1998) 7, 2249). Assays were carried out in a mixture of 100 mM Hepes (pH7.5), 10 mM MgCl2, 1 mM DTT, 25 mM NaCl, 2.5 mM phosphoenolpyruvate, 300 μM NADH, 30 μg/ml pyruvate kinase and 10 μg/ml lactate dehydrogenase. Final substrate concentrations in the assay were 400 μM ATP (Sigma Chemicals) and 570 μM peptide (Kemptide, American Peptide, Sunnyvale, Calif.). Assays were carried out at 30° C. and in the presence of 40 nM Aurora-2.
An assay stock buffer solution was prepared containing all of the reagents listed above, with the exception of Aurora-2 and the test compound of interest. 55 μl of the stock solution was placed in a 96 well plate followed by addition of 2 μl of DMSO stock containing serial dilutions of the test compound (typically starting from a final concentration of 7.5 μM). The plate was preincubated for 10 minutes at 30° C. and the reaction initiated by addition of 10 μl of Aurora-2. Initial reaction rates were determined with a Molecular Devices SpectraMax Plus plate reader over a 10 minute time course. IC50 and Ki data were calculated from non-linear regression analysis using the Prism software package (GraphPad Prism version 3.0cx for Macintosh, GraphPad Software, San Diego Calif., USA).

Aurora-1 (Aurora B) = Aurora-1 (Aurora B) (Homo sapiens, UniProt Q96GD4); assay: Aurora-1 (Aurora B) inhibition assay (radiometric); format: biochemical; settings: 800 μM [γ-33P]-ATP, Kemptide, 25° C., 3 hours
Aurora-1 (Aurora B), sequence (Q96GD4 whole entry): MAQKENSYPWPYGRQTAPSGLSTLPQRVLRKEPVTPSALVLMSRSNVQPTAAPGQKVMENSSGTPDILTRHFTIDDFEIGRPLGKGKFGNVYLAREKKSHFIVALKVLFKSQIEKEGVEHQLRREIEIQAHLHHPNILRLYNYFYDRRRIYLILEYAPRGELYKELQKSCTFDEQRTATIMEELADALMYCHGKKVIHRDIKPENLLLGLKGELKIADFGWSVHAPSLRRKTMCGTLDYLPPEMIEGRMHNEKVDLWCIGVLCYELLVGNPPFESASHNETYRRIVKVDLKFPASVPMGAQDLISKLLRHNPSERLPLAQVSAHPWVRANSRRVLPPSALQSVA
Description: An assay buffer solution was prepared which consisted of 25 mM HEPES (pH 7.5), 10 mM MgCl2, 0.1% BSA and 10% glycerol. A 22 nM Aurora-B solution, also containing 1.7 mM DTT and 1.5 mM Kemptide (LRRASLG), was prepared in assay buffer. To 22 μL of the Aurora-B solution, in a 96-well plate, was added 2 μl of a compound stock solution in DMSO and the mixture allowed to equilibrate for 10 minutes at 25° C. The enzyme reaction was initiated by the addition of 16 μl stock [γ-^33P]-ATP solution (˜20 nCi/μL) prepared in assay buffer, to a final assay concentration of 800 μM. The reaction was stopped after 3 hours by the addition of 16 μL 500 mM phosphoric acid and the levels of ^33P incorporation into the peptide substrate were determined by the following method.
A phosphocellulose 96-well plate (Millipore, Cat no. MAPHNOB50) was pre-treated with 100 μL of a 100 mM phosphoric acid prior to the addition of the enzyme reaction mixture (40 μL). […] Levels of non-enzyme catalyzed background radioactivity were determined by adding 16 μL of the 500 mM phosphoric acid to control wells, containing all assay components (which acts to denature the enzyme), prior to the addition of the [γ-^33P]-ATP solution. Levels of enzyme catalyzed ^33P incorporation were calculated by subtracting mean background counts from those measured at each inhibitor concentration. […]

Cc1cc(Nc2cc(N3CC[C@H](F)C3)cc(Sc3ccc(NC(=O)C4CC4)cc3)n2)[nH]n1 [Compound 2, (S)-N-(4-(4-(3-Fluoropyrrolidin-1-yl)-6-(3-methyl-1H-pyrazol-5-ylamino)pyridin-2-ylthio)phenyl)cyclopropanecarboxamide]
Ki (Aurora-2 (Aurora A)): < 100 nM
Ki (Aurora-1 (Aurora B)): < 1000 nM

Cc1cnc(Nc2cc(N3CC[C@H](F)C3)cc(Sc3ccc(NC(=O)C4CC4)cc3)n2)s1 [Compound 1, (S)-N-(4-(4-(3-Fluoropyrrolidin-1-yl)-6-(5-methylthiazol-2-ylamino)pyridin-2-ylthio)phenyl)cyclopropanecarboxamide]
Ki (Aurora-2 (Aurora A)): < 100 nM
Ki (Aurora-1 (Aurora B)): < 1000 nM
